Common to all, as to format: biochemical
Assay [1] concerns the target T1, PI3Kbeta (Homo sapiens, UniProt P42338).
T1 construct: His (N); host or cells: SF9 insect cells (baculovirus)
Kind of assay: Human PI3K beta enzyme assay (HTRF, as for PI3K alpha). The settings on record: for inhibition at 1.11 µM: read-out: PI3Kbeta % inh; for pIC50: read-out: IC50 (inhibit PI3Kbeta). In outline:
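N-His p110β/δ co-expressed with untagged p85 in Sf9, p110γ alone. Enzyme 5.25 nM (β), 0.75 nM (δ), 5 nM (γ), with ATP 25 uM and di-C8 PI(4,5)P2 3.5 uM (added-solution levels), pH 7.00, 30 min RT. HTRF read-out: biotin-PIP3, GST-GRP-1 PH domain, Eu anti-GST, streptavidin-XL.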

Assay [2] addresses T2, PI3Kalpha (Homo sapiens, UniProt P42336).
T2 construct: His (N); host or cells: SF9 insect cells (baculovirus)
Kind of assay: Human PI3Kα enzyme assay (HTRF). The settings on record: for inhibition at 1.11 µM: read-out: PI3Kalpha % inh. The essentials:
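His-tagged p110α co-expressed with p85 in Sf9 cells was reacted for 30 min at room temperature in pH 7.00 Hepes buffer with 10 mM MgCl2. Addition solutions held 25 uM ATP, 3.5 uM di-C8 PI(4,5)P2 and 0.4875 nM enzyme. The reaction was quenched with EDTA/biotin-PIP3 and detected by HTRF (GST-GRP-1 PH domain, streptavidin-XL, Eu anti-GST) after 1 h.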

Assay [3] has as its target T3, PI3Kgamma (Homo sapiens, UniProt P48736).
T3 construct: His (N); host or cells: SF9 insect cells (baculovirus)
Kind of assay: Human PI3K gamma enzyme assay (HTRF, as for PI3K alpha). To be noted: read-out: PI3Kgamma % inh. An excerpt:
(§1) The catalytic subunits of PI3Ks are cloned into either pDEST8(p110 alpha) or pDEST10(p110beta, p110delta, and p110gamma) as N-terminal His tagged fusion proteins using the Gateway system (Invitrogen, catalog#11804-010 for pDEST8 and 11806-015 for pDEST10). The sequences are verified before recombinant protein expression using the Baculovirus Expression System with Gateway® Technology. The accession numbers for the subunits are as follows:
(§2) The regulatory subunits of PI3Ks are cloned into pDEST8 as un-tagged protein using the Gateway system (Catalog#11804-010). The sequences are verified before recombinant protein expression using the Baculovirus Expression System with Gateway® Technology. The accession numbers for the subunits are as follows:
(§3) For expression of the p110 complexes, the p85 (MOI of 4) is co-infected with p110 alpha, beta, and delta respectively (1MOI) in SF9 cells and harvested at 60 hours post co-infection. P110 gamma was infected at 1 MOI and harvested at 60 hours post infection.
(§4) For purification, PI3Ks are purified by Ni-NTA Agarose (Qiagen #30250) followed by Mono Q 10/100 GL (Ge Healthcare #17-5167-01). VPS34 is purified by Glutathione Sepharose 4 Fast Flow (GE Healthcare #17-5132-03) followed by HiTrap Q (GE Healthcare #17-1153-01).
(§5) 0.5 uL compounds in DMSO are added to wells of a 384 well microtitre plate (Corning 3575). At room temperature: 10 ul PI3K reaction buffer (50 mM Hepes, 5 mM DTT, 150 mM NaCl, 10 mM beta-glycerophosphate, 10 mM MgCl2, 0.25 mM sodium cholate and 0.001% CHAPS, pH 7.00) containing ATP (25 uM, Promega) is added followed immediately by 10 ul PI3K reaction buffer containing di-C8 PI(4,5)P2 (3.5 uM, CellSignals) and PI3Kalpha (0.4875 nM, Millennium Protein Sciences Group) and the mixture is incubated with shaking at room temperature for 30 minutes. Then 5 ul PI3K stop mix (50 mM Hepes, 5 mM DTT, 150 mM NaCl, 0.01% Tween-20, 15 mM EDTA and 25 nM biotin-PI(3,4,5)P3 (Echelon) is added to quench the reaction followed immediately by addition of 5 ul HTRF detection mix (50 mM Hepes, 5 mM DTT, 150 mM NaCl, 0.01% Tween-20, 40 mM KF, 10 nM GST:GRP-1 PH domain (Millennium Protein Sciences Group), 15 nM Streptavidin-XL (CisBio) and 0.375 nM anti-GST Eu++ antibody (CisBio) at pH 7.00). The plates are then incubated for 1 hour at room temperature with shaking and then read on a BMG PheraStar Plus reader.
(§6) 2) Human PI3K beta, delta and gamma isoforms are tested using the procedure described for PI3K alpha above but with the following changes: PI3K beta (5.25 nM), PI3K delta (0.75 nM) and PI3K gamma (5 nM). All isoforms supplied by Millennium Protein Science Group.

For assay [4], the target named is T4, VPS34 (Homo sapiens, UniProt Q8NEB9).
T4 construct: GST (N); host or cells: SF9 insect cells (baculovirus)
Kind of assay: Human VPS34 enzyme assay (Adapta Universal Kinase Assay). To be noted: for inhibition at 1.11 µM: 1 h, read-out: VPS34 % ihn. As for the experimental part: VPS34 (accession number GB:BC033004) is cloned into pDEST20-Thombin as N-terminal GST tagged fusion proteins using the Gateway system (Invitrogen, catalog#11804-013). The sequences are verified before recombinant protein expression using the Baculovirus Expression System with Gateway® Technology.
For expression VPS34 was infected at 1MOI in SF9 cells and harvested 72 hours post infection.
For purification, VPS34 is purified by Glutathione Sepharose 4 Fast Flow (GE Healthcare #17-5132-03) followed by HiTrap Q (GE Healthcare #17-1153-01).
3) VPS34 is assayed using Adapta™ Universal Kinase Assay Kit (Invitrogen).
4) Human VPS34 enzyme assay method
100 mL compounds in DMSO are added to wells of a 384 well microtitre plate (Greiner 780076). At room temperature: 5 ul VPS34 reaction buffer (Invitrogen Assay Buffer Q (diluted 1 in 5 with nanopure water) plus 2 mM DTT and 2 mM MnCl2) containing ATP (20 uM, Promega) and 200 uM PI-PS substrate (Invitrogen PV5122) is added followed immediately by 5 ul VPS34 reaction buffer (as above) containing VPS34 (5 nM, Millennium Protein Sciences Group) and the mixture is incubated with shaking at room temperature for 1 hour. Then 5 ul VPS34 stop-detect mix (as per Invitrogen Adapta Assay kit (PV5009) instructions (contains kinase quench buffer, TR-FRET buffer, Adapta Eu anti-ADP antibody and Alexa Fluor 647 ADP tracer)) is added to quench the reaction. The plates are then incubated for 30 minutes at room temperature with shaking and then read on a BMG PheraStar Plus reader.

Assay [5] addresses T5, PI3Kdelta (Homo sapiens, UniProt O00329).
T5 construct: His (N); host or cells: SF9 insect cells (baculovirus)
The experiment in a line: Human PI3K delta enzyme assay (HTRF, as for PI3K alpha). The settings on record: read-out: PI3Kdelta % inh.
Excerpt: as §1, §2, §3, §4, §5, §6

pIC50: −log10 of the molar value.

T1 sequence (P42338 whole entry): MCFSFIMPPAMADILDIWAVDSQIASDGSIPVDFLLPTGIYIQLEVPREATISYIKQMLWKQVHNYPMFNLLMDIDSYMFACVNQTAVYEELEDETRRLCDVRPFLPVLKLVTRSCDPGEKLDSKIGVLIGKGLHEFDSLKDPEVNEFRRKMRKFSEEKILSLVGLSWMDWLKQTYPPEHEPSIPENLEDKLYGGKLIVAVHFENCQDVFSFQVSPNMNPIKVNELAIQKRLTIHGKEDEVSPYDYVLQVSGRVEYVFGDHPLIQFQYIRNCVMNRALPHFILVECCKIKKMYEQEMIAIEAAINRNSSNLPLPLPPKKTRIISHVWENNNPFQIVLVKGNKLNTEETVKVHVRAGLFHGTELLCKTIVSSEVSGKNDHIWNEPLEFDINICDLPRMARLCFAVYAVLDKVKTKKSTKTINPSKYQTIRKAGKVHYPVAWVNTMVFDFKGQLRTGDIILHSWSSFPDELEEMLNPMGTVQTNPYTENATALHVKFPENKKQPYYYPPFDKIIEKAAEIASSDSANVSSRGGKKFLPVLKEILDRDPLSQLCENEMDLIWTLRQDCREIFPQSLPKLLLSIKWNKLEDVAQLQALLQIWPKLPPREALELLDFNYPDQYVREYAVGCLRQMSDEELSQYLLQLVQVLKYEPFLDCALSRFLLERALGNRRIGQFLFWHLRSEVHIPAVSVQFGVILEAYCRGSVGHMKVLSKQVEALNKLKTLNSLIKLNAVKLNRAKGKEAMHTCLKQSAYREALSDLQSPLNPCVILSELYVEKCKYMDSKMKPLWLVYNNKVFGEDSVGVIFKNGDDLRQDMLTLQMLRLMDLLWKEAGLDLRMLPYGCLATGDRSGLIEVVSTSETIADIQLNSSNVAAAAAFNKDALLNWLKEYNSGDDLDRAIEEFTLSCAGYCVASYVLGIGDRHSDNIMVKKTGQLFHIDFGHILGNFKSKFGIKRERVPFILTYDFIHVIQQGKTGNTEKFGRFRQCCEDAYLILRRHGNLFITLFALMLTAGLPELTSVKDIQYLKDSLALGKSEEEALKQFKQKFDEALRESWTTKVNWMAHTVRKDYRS
T1 sequence (P27986 whole entry partner): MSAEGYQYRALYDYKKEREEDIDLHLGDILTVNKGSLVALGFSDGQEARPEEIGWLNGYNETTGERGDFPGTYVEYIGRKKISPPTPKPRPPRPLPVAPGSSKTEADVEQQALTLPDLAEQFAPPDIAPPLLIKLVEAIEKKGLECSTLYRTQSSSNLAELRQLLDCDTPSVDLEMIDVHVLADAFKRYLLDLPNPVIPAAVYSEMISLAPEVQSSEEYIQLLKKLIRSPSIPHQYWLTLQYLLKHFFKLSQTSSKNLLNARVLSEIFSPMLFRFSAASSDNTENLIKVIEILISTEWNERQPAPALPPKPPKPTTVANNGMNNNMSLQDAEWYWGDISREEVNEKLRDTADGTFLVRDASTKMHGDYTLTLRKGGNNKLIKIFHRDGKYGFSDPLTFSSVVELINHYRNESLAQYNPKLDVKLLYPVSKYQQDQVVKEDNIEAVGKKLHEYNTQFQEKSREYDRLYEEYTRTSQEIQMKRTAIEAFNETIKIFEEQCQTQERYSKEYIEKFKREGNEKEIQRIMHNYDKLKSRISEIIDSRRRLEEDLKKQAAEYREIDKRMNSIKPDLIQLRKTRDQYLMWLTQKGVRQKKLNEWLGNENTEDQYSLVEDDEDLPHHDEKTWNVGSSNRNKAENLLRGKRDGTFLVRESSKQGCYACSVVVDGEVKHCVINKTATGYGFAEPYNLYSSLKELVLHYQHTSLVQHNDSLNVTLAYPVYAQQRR
T3 sequence (P48736 whole entry): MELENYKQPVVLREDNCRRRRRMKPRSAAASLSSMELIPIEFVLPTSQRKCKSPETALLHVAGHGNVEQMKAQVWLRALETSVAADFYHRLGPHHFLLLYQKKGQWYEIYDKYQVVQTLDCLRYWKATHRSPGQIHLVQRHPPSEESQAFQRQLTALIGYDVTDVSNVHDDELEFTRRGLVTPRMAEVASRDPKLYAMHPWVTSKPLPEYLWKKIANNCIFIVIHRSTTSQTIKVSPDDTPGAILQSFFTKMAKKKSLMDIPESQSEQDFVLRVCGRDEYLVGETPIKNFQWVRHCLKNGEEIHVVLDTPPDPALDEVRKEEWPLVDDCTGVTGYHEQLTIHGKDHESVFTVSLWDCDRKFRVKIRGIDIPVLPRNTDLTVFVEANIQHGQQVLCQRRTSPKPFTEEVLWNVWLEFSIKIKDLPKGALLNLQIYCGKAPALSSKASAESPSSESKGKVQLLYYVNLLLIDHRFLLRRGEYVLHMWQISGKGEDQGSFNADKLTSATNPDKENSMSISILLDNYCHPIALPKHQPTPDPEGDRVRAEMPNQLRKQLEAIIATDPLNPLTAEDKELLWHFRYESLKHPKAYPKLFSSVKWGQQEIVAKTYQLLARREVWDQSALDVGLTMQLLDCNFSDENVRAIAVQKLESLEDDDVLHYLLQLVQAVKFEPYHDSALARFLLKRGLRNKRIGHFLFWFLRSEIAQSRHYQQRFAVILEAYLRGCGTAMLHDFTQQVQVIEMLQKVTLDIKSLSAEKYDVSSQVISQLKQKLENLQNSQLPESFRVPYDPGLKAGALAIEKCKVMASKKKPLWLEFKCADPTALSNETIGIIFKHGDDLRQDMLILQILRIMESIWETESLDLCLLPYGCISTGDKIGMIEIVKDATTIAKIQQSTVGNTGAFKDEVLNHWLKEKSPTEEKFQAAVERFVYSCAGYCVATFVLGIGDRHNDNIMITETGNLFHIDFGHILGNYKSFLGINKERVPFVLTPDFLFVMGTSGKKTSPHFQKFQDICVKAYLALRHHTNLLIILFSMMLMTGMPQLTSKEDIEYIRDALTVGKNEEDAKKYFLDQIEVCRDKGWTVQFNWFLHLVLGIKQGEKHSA
T5 sequence (O00329 whole entry): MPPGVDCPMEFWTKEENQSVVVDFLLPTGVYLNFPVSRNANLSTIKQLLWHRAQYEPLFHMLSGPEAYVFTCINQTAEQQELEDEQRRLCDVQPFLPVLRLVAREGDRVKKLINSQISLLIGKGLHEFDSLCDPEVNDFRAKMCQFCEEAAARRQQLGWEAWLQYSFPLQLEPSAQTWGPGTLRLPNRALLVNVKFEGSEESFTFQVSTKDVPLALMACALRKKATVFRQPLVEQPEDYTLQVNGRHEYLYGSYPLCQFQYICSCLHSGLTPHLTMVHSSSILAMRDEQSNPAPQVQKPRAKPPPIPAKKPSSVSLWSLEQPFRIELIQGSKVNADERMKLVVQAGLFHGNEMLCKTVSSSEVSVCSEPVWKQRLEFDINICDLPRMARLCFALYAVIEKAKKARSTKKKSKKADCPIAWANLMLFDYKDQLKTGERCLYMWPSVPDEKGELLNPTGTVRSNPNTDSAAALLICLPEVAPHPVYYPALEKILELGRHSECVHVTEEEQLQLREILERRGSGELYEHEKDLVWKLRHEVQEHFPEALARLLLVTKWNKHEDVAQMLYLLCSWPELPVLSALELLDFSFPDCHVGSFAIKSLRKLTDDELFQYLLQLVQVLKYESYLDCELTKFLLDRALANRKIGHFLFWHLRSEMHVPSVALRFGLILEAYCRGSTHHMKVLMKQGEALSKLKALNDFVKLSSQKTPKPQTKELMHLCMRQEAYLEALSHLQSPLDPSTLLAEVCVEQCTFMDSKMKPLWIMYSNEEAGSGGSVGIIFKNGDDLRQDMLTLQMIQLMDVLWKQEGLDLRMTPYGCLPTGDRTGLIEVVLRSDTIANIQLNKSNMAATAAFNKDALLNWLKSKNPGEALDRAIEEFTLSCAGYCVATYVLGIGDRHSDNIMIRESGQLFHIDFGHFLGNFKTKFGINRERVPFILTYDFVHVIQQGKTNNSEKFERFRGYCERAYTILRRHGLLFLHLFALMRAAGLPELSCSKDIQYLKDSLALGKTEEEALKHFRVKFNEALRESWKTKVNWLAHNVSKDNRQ
T5 sequence (P27986 whole entry partner): as the sequence (P27986 whole entry partner) above
T4 sequence (Q8NEB9 whole entry): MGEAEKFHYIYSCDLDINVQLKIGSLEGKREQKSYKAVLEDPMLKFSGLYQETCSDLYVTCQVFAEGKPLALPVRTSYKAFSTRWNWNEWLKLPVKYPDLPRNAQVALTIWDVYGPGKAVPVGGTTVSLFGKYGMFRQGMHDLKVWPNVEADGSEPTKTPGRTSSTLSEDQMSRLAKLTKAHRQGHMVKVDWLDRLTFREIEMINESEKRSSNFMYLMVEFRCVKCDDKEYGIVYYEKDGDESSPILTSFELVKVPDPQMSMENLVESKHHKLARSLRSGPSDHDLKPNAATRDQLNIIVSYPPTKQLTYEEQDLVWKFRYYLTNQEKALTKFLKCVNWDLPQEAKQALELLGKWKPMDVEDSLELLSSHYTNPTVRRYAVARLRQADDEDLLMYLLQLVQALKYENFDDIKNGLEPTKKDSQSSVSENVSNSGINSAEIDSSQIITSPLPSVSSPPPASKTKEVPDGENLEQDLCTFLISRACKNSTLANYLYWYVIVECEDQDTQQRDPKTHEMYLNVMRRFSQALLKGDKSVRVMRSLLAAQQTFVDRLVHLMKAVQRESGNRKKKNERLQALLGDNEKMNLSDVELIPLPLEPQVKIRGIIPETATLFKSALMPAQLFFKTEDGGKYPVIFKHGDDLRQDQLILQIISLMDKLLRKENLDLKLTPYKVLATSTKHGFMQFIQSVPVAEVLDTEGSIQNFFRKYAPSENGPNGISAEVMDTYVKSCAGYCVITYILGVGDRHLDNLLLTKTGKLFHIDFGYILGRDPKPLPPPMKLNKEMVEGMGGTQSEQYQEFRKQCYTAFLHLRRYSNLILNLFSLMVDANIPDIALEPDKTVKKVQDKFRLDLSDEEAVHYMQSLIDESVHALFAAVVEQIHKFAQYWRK

`CN(C)C(=O)[C@@H]1NC(=O)c2sc(N3CCOCC3)cc2[C@H]1c1ccc(Cl)cc1` [Compound 125]: the inhibition at 1.11 µM in assay [1] came to 71.8%; in assay [2] it was 22.6%; in assay [3], 16.7%; in assay [4] it was 24.4%; in assay [5] it was 44.5%.
On to `C[Si](C)(C)CCOCN1CC(O)(c2ccc3ccccc3c2)c2cc(N3CCOCC3)sc2S1(=O)=O` (stereo not shown) [Compound 144, 6-(morpholin-4-yl)-4-(2-naphthyl)-2-{[2-(trimethylsilyl)ethoxy]methyl}-3,4-dihydro-2H-thieno[3,2-e][1,2]thiazin-4-ol 1,1-dioxide], for which the inhibition at 1.11 µM was 101% in assay [1]; 41.6% in assay [2]; 67.8% in assay [3]; 5.73% in assay [4]; 111% in assay [5].
For the compound `N#Cc1c(N2CCOCC2)sc2c1C(c1ccc3ccccc3c1)CCNC2=O` (stereo not shown) [Compound 188], the inhibition at 1.11 µM in assay [1] was found to be 117%; in assay [2], 102%; in assay [3], 62.3%; in assay [4] it was 12.9%; in assay [5] it was 110%.
Regarding `O=C1NCCC(c2ccc(Cl)c(Cl)c2)c2cc(N3CCOCC3)sc21` (stereo not shown) [Compound 185, 4-(3,4-dichlorophenyl)-2-(morpholin-4-yl)-4,5,6,7-tetrahydro-8H-thieno[2,3-c]azepin-8-one], the inhibition at 1.11 µM is 106% in assay [1]; 27.7% in assay [2]; 53.4% in assay [3]; 47.8% in assay [4]; 110% in assay [5].
As to `O=S1(=O)NC=C(c2ccc(Cl)cc2)c2cc(-c3ccncc3)sc21` [Compound 27, 4-(4-chlorophenyl)-6-pyridin-4-yl-2H-thieno[3,2-e][1,2]thiazine 1,1-dioxide], the inhibition at 1.11 µM in assay [1] was 98.3%; in assay [2], 4.9%; in assay [3] it was 12.3%; in assay [4] it was 8.5%; in assay [5] it was 46%. For the same compound, the pIC50 in assay [1] is 6.00 to 7.00.
Consider `CC(=O)Nc1cc(-c2cc3c(s2)C(=O)CCC3c2ccc(Cl)cc2)ccn1` (stereo not shown) [Compound 7, N-{4-[4-(4-chlorophenyl)-7-oxo-4,5,6,7-tetrahydro-1-benzothien-2-yl]pyridin-2-yl}acetamide], for which the inhibition at 1.11 µM in assay [1] was determined as 64.6%; in assay [2] it was 20.5%; in assay [3] it was 6.5%; in assay [4], 9.6%; in assay [5], 91.3%. Moreover, the pIC50 in assay [1] was 6.00 to 7.00.
In the case of `O=C1CCC(O)C(c2ccc(Cl)cc2)c2cc(-c3ccncc3)sc21` (stereo not shown) [Compound 210, 4-(4-chlorophenyl)-5-hydroxy-2-pyridin-4-yl-4,5,6,7-tetrahydro-8H-cyclohepta[b]thiophen-8-one], the inhibition at 1.11 µM in assay [1] is 73%; in assay [3], 5.88%; in assay [5] it was 34.6%. The same compound showed a PI3Kalpha % inh in assay [2] (at 1.11 μM) of 5.17%. Also, the VPS34 % ihn in assay [4] (at 1.11 μM) is listed as −0.70%.
Regarding `CC(=O)Nc1cc(-c2cc3c(s2)C(=O)NCCC3c2ccc(Cl)cc2)ccn1` (stereo not shown) [Compound 1, N-{4-[4-(4-chlorophenyl)-8-oxo-5,6,7,8-tetrahydro-4H-thieno[2,3-c]azepin-2-yl]pyridin-2-yl}acetamide], the inhibition at 1.11 µM was 100% in assay [1]; 49.8% in assay [2]; 63.4% in assay [3]; 29.3% in assay [4]; 103% in assay [5]. Also, the pIC50 in assay [1] was greater than 7.00.
In the case of `O/N=C1/CCC(c2ccc(Cl)cc2)c2cc(-c3ccncc3)sc21` (stereo not shown) [Compound 18, (7Z)-4-(4-chlorophenyl)-2-pyridin-4-yl-5,6-dihydro-1-benzothiophen-7(4H)-one oxime], the inhibition at 1.11 µM in assay [1] was 104%; in assay [2], 18.8%; in assay [3] it was 21.5%; in assay [4] it was -4.1%; in assay [5], 53.8%. For the same compound, the pIC50 in assay [1] was greater than 7.00.
As to `O=C1CCCC(c2ccc(Cl)cc2)c2cc(-c3ccncc3)sc21` (stereo not shown) [Compound 19, 4-(4-chlorophenyl)-2-pyridin-4-yl-4,5,6,7-tetrahydro-8H-cyclohepta[b]thiophen-8-one], the inhibition at 1.11 µM in assay [1] was 86.5%; in assay [2], -0.4%; in assay [3], 8.1%; in assay [4] it was -6.8%; in assay [5], 43.1%. Besides, the pIC50 in assay [1] is 6.00 to 7.00.
As to `CC1(C)C(=O)c2sc(-c3ccncc3)cc2C1c1ccc(Cl)cc1` (stereo not shown) [Compound 147, 4-(4-chlorophenyl)-5,5-dimethyl-2-(pyridin-4-yl)-4H-cyclopenta[b]thiophen-6(5H)-one], the inhibition at 1.11 µM in assay [1] amounted to 65.7%; in assay [2], 3.15%; in assay [3], 2.45%; in assay [4], 9.65%; in assay [5] it was 9.91%.
On to `CC1=CC(=O)Nc2sc(-c3ccncc3)cc2C1(C)c1ccc(Cl)cc1` (stereo not shown) [Compound 17, 4-(4-chlorophenyl)-4,5-dimethyl-2-pyridin-4-yl-4,8-dihydro-7H-thieno[2,3-b]azepin-7-one], for which the inhibition at 1.11 µM in assay [1] was determined as 96.8%; in assay [2], 12.4%; in assay [3] it was 8.6%; in assay [4], 28.5%; in assay [5] it was 47.9%. The pIC50 in assay [1] was greater than 7.00.
Consider `N#Cc1c(N2CCOCC2)sc2c1C(c1ccc(Cl)cc1)OC2=O` (stereo not shown) [Compound 3, 4-(4-chlorophenyl)-2-morpholin-4-yl-6-oxo-4,6-dihydrothieno[2,3-c]furan-3-carbonitrile], for which the inhibition at 1.11 µM in assay [1] was 65.7%; in assay [2] it was 10.8%; in assay [4], -2.5%. Moreover, in assay [1], the pIC50 was 6.00 to 7.00.

Source of the values: patent publication US8765746B2 (Millennium Pharmaceuticals, Inc., priority 2010, dated 2014).
